Experimental findings from the OligoGym collection are described below.

One series has as its target SNHG14. As to conditions: ASO.
Another series deals with DGAT2. Particulars: ASO.
[1] abbreviates: Mouse Primary Neuronal Cell, 0.005 µM.

Values joined by “and” are separate entries in the source; they are usually repeats but may differ in a detail not shown here. Equal values may be shown once. After the bases stand the sugars from the 5' end (letter, count) and the backbone: PS all phosphorothioate, else s phosphorothioate and o phosphodiester by linkage. Methylation of C is not given here. e = 2'-O-(2-methoxyethyl) (MOE); l = locked nucleic acid (LNA); d = 2'-deoxy (DNA)

As for “TTACTCTGCAATACACC (sugars l2 d11 l4, PS)”, the target mRNA inhibition came to 55% with SNHG14 (Human Neuronal Cell, 0.2 µM) and 57% in the series with SNHG14 (Human Neuronal Cell, 1 µM).

For “GTTTCCATCTACTATTAA (sugars lllddlddddddldddll, PS)”, the target mRNA inhibition in the series with SNHG14 (Human Neuronal Cell, 7.5 µM) was found to be 47%.

“CAACATTATTAACCACCTTA (sugars lddddllddddddddlddll, PS)”: the target mRNA inhibition with SNHG14 (Human Neuronal Cell, 7.5 µM) is 47%.

Turning to “TTCACCAGTATTTCTTC (sugars l4 d11 l2, PS)”, the target mRNA inhibition in the series with SNHG14 (Human Neuronal Cell, 0.2 µM) worked out at 36%; with SNHG14 (Human Neuronal Cell, 1 µM), 32%.

For “AAATTATTTATACACCATCA (sugars ldlllddddddddlddllll, PS)”, the target mRNA inhibition with SNHG14 (Human Neuronal Cell, 7.5 µM) is 68%.

For the sequence ATTTCATTAAGTCACC (sugars l2 d10 l4, PS), the target mRNA inhibition was determined as 46% in the series with SNHG14 (Human Neuronal Cell, 0.2 µM) and 59% with SNHG14 (Human Neuronal Cell, 1 µM).

Turning to “GAAAATCTCAACTACCATT (sugars ldllldddddddlddllll, PS)”, in the series with SNHG14 (Human Neuronal Cell, 7.5 µM), the target mRNA inhibition stood at 57%.

As for “TTCTGTATACACCATCC (sugars l1 d14 l2, PS)”, the target mRNA inhibition with SNHG14 (Human Neuronal Cell, 7.5 µM) turned out to be 46%.

ATCATCAGTTACATCA (sugars l4 d10 l2, PS): the target mRNA inhibition with SNHG14 (Human Neuronal Cell, 0.2 µM) was determined as 62%; in the series with SNHG14 (Human Neuronal Cell, 1 µM), 63%.

In the case of “TTTACACTTAATTATACTTC (sugars lldllddddddddldlllll, PS)”, the target mRNA inhibition with SNHG14 (Human Neuronal Cell, 7.5 µM) was determined as 29%.

In the case of “TTATAGCCATTCTATCT (sugars l2 d2 l1 d10 l2, PS)”, in the series with SNHG14 (Human Neuronal Cell, 7.5 µM), the target mRNA inhibition is 64%.

For “TTCTGTATACACCATCC (sugars lddlddddddddlddll, PS)”, in the series with SNHG14 (Human Neuronal Cell, 7.5 µM), the target mRNA inhibition came out at 60%.

With “CTCAAAGATCATTCTCA (sugars ldldldddddddlldll, PS)”, the target mRNA inhibition with SNHG14 (Human Neuronal Cell, 7.5 µM) worked out at 65%.

With “TTCTGTATACACCATCC (sugars l3 d12 l2, PS)”, in the series with SNHG14 (Human Neuronal Cell, 7.5 µM), the target mRNA inhibition came to 58%.

With “TTGATTCAATTCCCTTA (sugars l2 d11 l1 d1 l2, PS)”, the target mRNA inhibition with SNHG14 (Human Neuronal Cell, 7.5 µM) was 60%.

As for “TTATAGCCATTCTATCT (sugars ldddlddddddldldll, PS)”, the target mRNA inhibition with SNHG14 (Human Neuronal Cell, 7.5 µM) was found to be 5%.

For “CCTACATCTCATACTTGC (sugars l2 d13 l3, PS)”, the target mRNA inhibition in the series with SNHG14 (setting [1]) came to 96.8%.

Take “TATTGATTCAATTCCCT (sugars l1 d10 l1 d2 l3, PS)”: the target mRNA inhibition with SNHG14 (Human Neuronal Cell, 7.5 µM) came out at 65%.

On to “TACTCTGCAATACACCA (sugars l1 d3 l1 d10 l2, PS)”, for which the target mRNA inhibition in the series with SNHG14 (Human Neuronal Cell, 7.5 µM) worked out at 54%.

Take “TTGATTCAATTCCCTTA (sugars lldlddddddddlddll, PS)”: the target mRNA inhibition with SNHG14 (Human Neuronal Cell, 7.5 µM) was 63%.

For the sequence “GTTTCCATCTACTATTAAT (sugars l1 d2 l2 d12 l2, PS)”, the target mRNA inhibition with SNHG14 (Human Neuronal Cell, 7.5 µM) was found to be 62%.

For the sequence “TTACCTACATCTCATAC (sugars l2 d13 l2, PS)”, the target mRNA inhibition with SNHG14 (Human Neuronal Cell, 0.2 µM) was 1%; with SNHG14 (Human Neuronal Cell, 1 µM), -8%; with SNHG14 (Human Neuronal Cell, 5 µM), 19%; with SNHG14 (setting [1]), 79%.

Turning to “TTTATCAATATCTTCTCAC (sugars lldldlddddddllddlll, PS)”, the target mRNA inhibition with SNHG14 (Human Neuronal Cell, 7.5 µM) was 58%.

As to “AAACTTTCCCAACATTAT (sugars l2 d12 l4, PS)”, the target mRNA inhibition with SNHG14 (Human Neuronal Cell, 0.2 µM) is 35%; with SNHG14 (Human Neuronal Cell, 1 µM), 49%.

On to CAAATACAGATTATCC (sugars l2 d10 l4, PS), for which the target mRNA inhibition with SNHG14 (Human Neuronal Cell, 0.2 µM) amounted to 49%; in the series with SNHG14 (Human Neuronal Cell, 1 µM), 59%.

ACTGATTTCCTTAAAC (sugars l4 d10 l2, PS): the target mRNA inhibition with SNHG14 (Human Neuronal Cell, 0.2 µM) was 24%; with SNHG14 (Human Neuronal Cell, 1 µM) it was 52%.

Regarding “GCAACATTATTAACCACCT (sugars lddldldddddddddddll, PS)”, the target mRNA inhibition with SNHG14 (Human Neuronal Cell, 7.5 µM) turned out to be 60%.

Consider “TACTCTGCAATACACC (sugars l1 d3 l1 d7 l4, PS)”, for which, in the series with SNHG14 (Human Neuronal Cell, 7.5 µM), the target mRNA inhibition amounted to 63%.

For the sequence “TAATCCCATACATCTAT (sugars l2 d11 l4, PS)”, the target mRNA inhibition amounted to 50% in the series with SNHG14 (Human Neuronal Cell, 0.2 µM) and 61% with SNHG14 (Human Neuronal Cell, 1 µM).

For the sequence “GTTTCCATCTACTATTAA (sugars ldddlldddddddlldll, PS)”, the target mRNA inhibition with SNHG14 (Human Neuronal Cell, 7.5 µM) came to 53%.

For “TGTTTCCATCTACTATTA (sugars ldldddddddddddldll, PS)”, the target mRNA inhibition with SNHG14 (Human Neuronal Cell, 7.5 µM) came to 61%.

In the case of CATTCAACCCTAATCA (sugars l3 d10 l3, PS), the target mRNA inhibition with SNHG14 (Human Neuronal Cell, 0.2 µM) was determined as 26%; with SNHG14 (Human Neuronal Cell, 1 µM) it was 38%.

Consider “TTTTATACCTTTCTTTAACC (sugars l1 d15 l1 d1 l2, PS)”, for which, in the series with SNHG14 (Human Neuronal Cell, 7.5 µM), the target mRNA inhibition worked out at 24%.

For the sequence “GCCTGGACAAGTCCTGCCCA (sugars e5 d10 e5, PS)”, the target mRNA inhibition in the series with DGAT2 (HepG2, 0.12 µM) was 70% and 86%; with DGAT2 (HepG2, 20 µM), 81% and 88%.

Regarding “CTGCACTCTCTCTGCACACT (sugars e5 d10 e5, PS)”, the target mRNA inhibition with DGAT2 (HepG2, 2.5 µM) was 65% and 83%; with DGAT2 (HepG2, 10 µM) it was 81% and 90%.

For “CAGCACTGACATGGTAAGTC (sugars e5 d10 e5, PS)”, the target mRNA inhibition is 79% and 69% with DGAT2 (HepG2, 2.5 µM); 92% and 97% with DGAT2 (HepG2, 10 µM).

As for “AGTGCTTTCTAAGTACCCTT (sugars e5 d10 e5, PS)”, the target mRNA inhibition is 91% and 88% in the series with DGAT2 (HepG2, 2.5 µM); 90% and 94% with DGAT2 (HepG2, 10 µM).

As to “CAGGTAAGGCCGTATGCCTG (sugars e2 d13 e5, PS)”, in the series with DGAT2 (HepG2, 0.12 µM), the target mRNA inhibition was determined as 59%.
